Results as given in patent US20070172957A1, “Methods of identifying anti-inflammatory macrolides” (TAISHO PHARMACEUTICAL CO., LTD., priority 2004, published 2007).

Tested on: A549 cells
Assay: A549 microarray comparing macrolides with arachidonic acid pathway inhibitors, with IL-1β stimulation (Appendix C, Tables 6-9), and correlation analysis
Assay type: cell-based
Settings: A549; IL1 vs IL1 + drug; threshold 1.3; macrolides 50 μM (FMA 10 μM), triacsin C 15 μM, indomethacin and dexamethasone 100 nM
Source text: One inhibitor, triacsin C, acts on AA biosynthesis by inhibiting arachidonyl CoA synthetases, blocking the incorporation of free AA into phospholipids. Triacsin C is reasonably specific for AA compared to other fatty acids. However, triacsin C structurally resembles AA so it also may interfere with other steps in the AA pathway. Indomethacin is an inhibitor of COX1 and COX2 enzyme activities and therefore specifically blocks metabolism of AA into prostaglandins. […] It inhibits transcription of PLA2, and transcriptionally and post-transcriptionally regulates COX1 and COX2 activities. Dexamethasone has additional effects unrelated to AA through binding with the glucocorticoid receptor to glucocortcoid response elements.
A549 cells were pre-incubated overnight (17 hours) with macrolides (10 μM FMA-9045, 50 μM clarithromycin, 50 μM roxithromycin, 50 μM josamycin) and 15 μM triacsin C, and pre-incubated 2 hours with 100 nM indomethacin and 100 nM dexamethasone. All cells then were stimulated for 4 hours with IL-1β, because the activation of PLA2 and downstream signaling events generally requires an inflammatory stimulus. The various treatment conditions are shown below in Table 4. Following macrolide and inhibitor pre-treatment and IL-1 stimulation, the cells were lysed, total RNA was collected, and the poly-A+ mRNA fraction was purified. The resulting microarray data (Appendix C) were analyzed using the methods described in the Examples above.
The tables in Appendix C represent the effects of the arachidonic acid pathway inhibitors (“AA pathway inhibitors”) and the effects of the macrolides (“IL1+macrolide effects”). […] In both tables in Appendix C, the genes that meet this criterion (≧1.3 min fold change) are indicated in bold.
Quantitative analysis was done to determine how well the responses to the different AA pathway inhibitors correlated. The correlation values were assigned a p-value to provide statistical confidence to the correlation value. Correlation between experiments, across all spots showing good detection, was assessed by cosine vector angle to generate the data shown in Tables 7-9. A correlation coefficient close to one indicates strong correlation, whereas a value near zero indicates no correlation. P-values for each correlation coefficient were estimated based on a Fisher permutation test. In this test, each spot's expression ratios were randomly re-ordered across experiments and the degree of correlation between experiments was then reassessed. This was done repeatedly.

In the case of `C[C@@H]1C[C@H]2[C@@H]3CCC4=CC(=O)C=C[C@]4(C)[C@@]3(F)[C@@H](O)C[C@]2(C)[C@@]1(O)C(=O)CO` [dexamethasone], the “Total # Differential Genes (95% confidence)” value is reported as 341.
